The Ki is the dissociation constant of the complex between target and ligand, obtained from inhibition or displacement. A low value points to higher affinity.

Sequence of human A2A receptor (P29274 whole entry): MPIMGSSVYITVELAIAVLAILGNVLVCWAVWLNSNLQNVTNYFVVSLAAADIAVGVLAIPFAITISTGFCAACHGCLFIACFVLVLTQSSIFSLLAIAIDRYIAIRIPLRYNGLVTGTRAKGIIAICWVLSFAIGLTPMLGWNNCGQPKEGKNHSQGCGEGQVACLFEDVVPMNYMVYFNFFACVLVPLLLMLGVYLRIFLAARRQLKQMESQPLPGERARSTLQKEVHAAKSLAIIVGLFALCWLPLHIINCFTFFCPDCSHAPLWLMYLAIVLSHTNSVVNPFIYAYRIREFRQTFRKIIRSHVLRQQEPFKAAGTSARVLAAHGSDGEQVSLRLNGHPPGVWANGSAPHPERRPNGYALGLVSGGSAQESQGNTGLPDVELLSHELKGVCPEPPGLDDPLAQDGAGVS

This assay concerns the target human A2A receptor (Homo sapiens (Human), UniProt P29274). The assay is described as follows: competition binding assay using Scintillation Proximity technology. The note with it: membranes from CHO-K1 cells expressing the human A2a receptor; 2.0 nM tritiated compound; Cheng-Prusoff. An outline of the steps: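 Membranes (1.0 μg) from CHO-K1 cells expressing human A2A were treated with adenosine deaminase, then incubated 1 h at room temperature with compound (3000–0.15 nM) and 2.0 nM tritiated SCH-type ligand on WGA SPA beads in PBS plus 10 mM MgCl2. Nonspecific binding was defined with 1 μM CGS 15943. Ki was derived from EC50 via Cheng-Prusoff.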
The compound `Nc1nc2c3c(ccc2c2ncnn12)OC(F)(F)O3` [Example 1, 2,2-difluoro-[1,3]dioxolo[4,5-h][1,2,4]triazolo[1,5-c]quinazolin-5-amine] yielded a Ki of 12 nM.

For `CC(c1nc2c3ccc4c(c3nc(N)n2n1)OC(F)(F)O4)N1CCCC(F)(F)C1` (single isomer, unassigned) [Example 135, 8-[(1S or 1R)-1-(3,3-difluoropiperidin-1-yl)ethyl]-2,2-difluoro[1,3]dioxolo [4,5-h][1,2,4]triazolo[1,5-c] quinazolin-5-amine], affinity was put at a Ki of 89 nM. Against the preceding compound, the Ki is about 7.4-fold higher.

On to `Cc1csc(CN(CCc2nc3c4ccc5c(c4nc(N)n3n2)OC(F)(F)O5)CC2CC2)n1` [Example 60, 8-(2-{(cyclopropylmethyl)[(4-methyl-1,3-thiazol-2-yl)methyl]amino}ethyl)-2,2-difluoro[1,3]dioxolo[4,5-h][1,2,4]triazolo[1,5-c]quinazolin-5-amine], for which the Ki is 0.7 nM.

Compound `Nc1nc2c3c(ccc2c2nc([C@H]4CC[C@H](N5CCCC(F)(F)C5)C4)nn12)OC(F)(F)O3` [Example 160, 8-[(1S,3S)-3-(3,3-difluoropiperidin-1-yl)cyclopentyl]-2,2-difluoro[1,3]dioxolo[4,5-h][1,2,4]triazolo[1,5-c]quinazolin-5-amine] came in with a Ki of 16 nM. Compared with the last compound, the Ki is about 23-fold higher.

Consider `CC(C)(Cc1nc2c3ccc4c(c3nc(N)n2n1)OC(F)(F)O4)N1CC(F)C1` [Example 101, 2,2-difluoro-8-(2-(3-fluoroazetidin-1-yl)-2-methylpropyl)-[1,3]dioxolo[4,5-h][1,2,4]triazolo[1,5-c]quinazolin-5-amine], for which the inhibitory constant (Ki) stood at 31 nM. Compared with the last compound, the Ki is about 1.9-fold higher.

`Nc1nc2c3c(ccc2c2nc(C4CCCN(c5cc(F)cc(F)c5)C4)nn12)OC(F)(F)O3` (single isomer, unassigned) [Example 145, (R or S)-8-[1-(3,5-difluorophenyl)piperidin-3-yl]-2,2-difluoro[1,3] dioxolo[4,5-h][1,2,4]triazolo[1,5-c]quinazolin-5-amine] had a Ki of 140 nM.

`C[C@@H](Cc1nc2c3ccc4c(c3nc(N)n2n1)OC(F)(F)O4)N1CC(C)(F)C1` [Example 88, 2,2-difluoro-8-[(2S)-2-(3-fluoro-3-methylazetidin-1-yl)propyl][1,3] dioxolo[4,5-h][1,2,4]triazolo [1,5-c]quinazolin-5-amine] had a Ki of 4.8 nM.

In turn, `CC1(C)CCCN(CCc2nc3c4ccc5c(c4nc(N)n3n2)OC(F)(F)O5)C1` [Example 39, 8-[2-(3,3-dimethylpiperidin-1-yl)ethyl]-2,2-difluoro[1,3] dioxolo[4,5-h][1,2,4]triazolo [1,5-c]quinazolin-5-amine] gave a Ki of 67 nM.

As to `CC1N(CCc2nc3c4ccc5c(c4nc(N)n3n2)OC(F)(F)O5)CCCC1(F)F` (single isomer, unassigned) [Example 69, (R or S)-8-[2-(3,3-difluoro-2-methylpiperidin-1-yl)ethyl]-2,2-difluoro[1,3]dioxolo[4,5-h][1,2,4] triazolo[1,5-c]quinazolin-5-amine], affinity was put at a Ki of 1.8 nM. Against the preceding compound, the Ki is about 37-fold lower.

In turn, `Nc1nc2c3c(ccc2c2nc(CCN4CC5CC5C4)nn12)OC(F)(F)O3` (stereo not drawn) [Example 35, 8-[2-(3-azabicyclo[3.1.0]hex-3-yl)ethyl]-2,2-difluoro[1,3] dioxolo[4,5-h][1,2,4]triazolo [1,5-c]quinazolin-5-amine] yielded a Ki of 3 nM.

`Nc1nc2c3c(ccc2c2nc(CCN4C[C@H](F)[C@@H](F)C4)nn12)OC(F)(F)O3` [Example 23, 8-{2-[(3S,4S)-3,4-difluoropyrrolidin-1-yl]ethyl}-2,2-difluoro[1,3]dioxolo[4,5-h][1,2,4]triazolo[1,5-c]quinazolin-5-amine] had a Ki of 1.6 nM. Compared with the last compound, the Ki is about 1.9-fold lower.

The compound `CC1=CCN(CCc2nc3c4ccc5c(c4nc(N)n3n2)OC(F)(F)O5)CC1` [Example 41, 2,2-difluoro-8-[2-(4-methyl-3,6-dihydropyridin-1(2H)-yl)ethyl][1,3]dioxolo[4,5-h][1,2,4]triazolo[1,5-c]quinazolin-5-amine] returned a Ki of 3.8 nM.

Take `Cc1nc2c3ccc4c(c3nc(N)n2n1)OC(F)(F)O4` [Example 2, 2,2-difluoro-8-methyl-[1,3]dioxolo[4,5-h][1,2,4]triazolo[1,5-c]quinazolin-5-amine]: the affinity corresponds to a Ki of 6.2 nM.

For `Nc1nc2c3c(ccc2c2nc(CCN4CCN(CC5CC5)C(=O)C4)nn12)OC(F)(F)O3` [Example 48, 4-[2-(5-amino-2,2-difluoro[1,3]dioxolo[4,5-h][1,2,4]triazolo [1,5-c]quinazolin-8-yl)ethyl]-1-(cyclopropylmethyl)piperazin-2-one], the affinity, expressed as Ki, was 0.8 nM.

The compound `Nc1nc2c3c(ccc2c2nc(CN4CCN(c5ccc(F)cc5)CC45CC5)nn12)OC(F)(F)O3` [Example 102, 2,2-difluoro-8-((7-(4-fluorophenyl)-4,7-diazaspiro[2.5]octan-4-yl)methyl)-[1,3]dioxolo[4,5-h][1,2,4]triazolo[1,5-c]quinazolin-5-amine] showed a Ki of 3.5 nM.

`Nc1nc2c3c(ccc2c2nc(CCN4CC(F)(F)C4)nn12)OC(F)(F)O3` [Example 19, 8-[2-(3,3-difluoroazetidin-1-yl)ethyl]-2,2-difluoro[1,3] dioxolo[4,5-h][1,2,4]triazolo [1,5-c]quinazolin-5-amine]: the Ki was 3 nM.

The compound `Nc1nc2c3c(ccc2c2nc(CCN4CCC(F)(F)C4)nn12)OC(F)(F)O3` [Example 24, 8-[2-(3,3-difluoropyrrolidin-1-yl)ethyl]-2,2-difluoro[1,3] dioxolo[4,5-h][1,2,4]triazolo [1,5-c]quinazolin-5-amine] gave a Ki of 1.4 nM.

`Nc1nc2c3c(ccc2c2nc(C4CCCN(c5cncnc5)C4)nn12)OC(F)(F)O3` (single isomer, unassigned) [Example 146, (R or S)-2,2-difluoro-8-(1-pyrimidin-5-ylpiperidin-3-yl)[1,3]dioxolo[4,5-h][1,2,4]triazolo[1,5-c]quinazolin-5-amine]: the Ki worked out at 44 nM.

`Nc1nc2c3c(ccc2c2nc(CCN4CC5COCC(C4)C5(F)F)nn12)OC(F)(F)O3` [Example 32, 8-[2-(9,9-difluoro-3-oxa-7-azabicyclo[3.3.1]non-7-yl)ethyl]-2,2-difluoro[1,3]dioxolo [4,5-h][1,2,4]triazolo[1,5-c]quinazolin-5-amine] registered a Ki of 40 nM.

As for `Nc1nc2c3c(ccc2c2nc(CN4CCC(Oc5ccc(F)cc5)CC4)nn12)OC(F)(F)O3` [Example 117, 2,2-difluoro-8-{[4-(4-fluorophenoxy)piperidin-1-yl]methyl}[1,3]dioxolo [4,5-h][1,2,4]triazolo[1,5-c]quinazolin-5-amine], the Ki was 4.9 nM.

With `Nc1nc2c3c(ccc2c2nc(C4CCCN(CCC(F)(F)F)C4)nn12)OC(F)(F)O3` (single isomer, unassigned) [Example 140, (R or S)-2,2-difluoro-8-(1-(3,3,3-trifluoropropyl)piperidin-3-yl)-[1,3]dioxolo[4,5-h][1,2,4]triazolo[1,5-c]quinazolin-5-amine], the Ki amounted to 0.8 nM.

Take `Nc1nc2c3c(ccc2c2nc(CCN4CC5CC4C(F)(F)C5)nn12)OC(F)(F)O3` (single isomer, unassigned) [Example 67, (R or S)-8-[2-(6,6-difluoro-2-azabicyclo[2.2.1]hept-2-yl)ethyl]-2,2-difluoro[1,3]dioxolo[4,5-h][1,2,4] triazolo[1,5-c]quinazolin-5-amine]: the affinity, expressed as Ki, was 3.5 nM.

The compound `Cc1nc2c(s1)CCN([C@H](C)Cc1nc3c4ccc5c(c4nc(N)n3n1)OC(F)(F)O5)C2` [Example 82, 2,2-difluoro-8-[(2R)-2-(2-methyl-6,7-dihydro[1,3]thiazolo[4,5-c]pyridin-5(4H)-yl)propyl][1,3] dioxolo[4,5-h][1,2,4]triazolo [1,5-c]quinazolin-5-amine] had a Ki of 1.5 nM.

In the case of `Nc1nc2c3c(ccc2c2nc(CN4Cc5cnc(C(F)(F)F)nc5C4)nn12)OC(F)(F)O3` [Example 121, 2,2-difluoro-8-{[2-(trifluoromethyl)-5,7-dihydro-6H-pyrrolo[3,4-d]pyrimidin-6-yl]methyl}[1,3]dioxolo [4,5-h][1,2,4]triazolo[1,5-c]quinazolin-5-amine], the inhibitory constant (Ki) was found to be 16 nM.

`Nc1nc2c3c(ccc2c2nc(CCNC4(C(F)(F)F)CCC4)nn12)OC(F)(F)O3` [Example 58, 2,2-difluoro-8-(2-{[1-(trifluoromethyl)cyclobutyl]-amino}ethyl)[1,3]dioxolo[4,5-h][1,2,4]triazolo[1,5-c]quinazolin-5-amine] displayed a Ki of 1 nM.

As to `C[C@@H]1CC(F)(F)CN1CCc1nc2c3ccc4c(c3nc(N)n2n1)OC(F)(F)O4` [Example 25], the Ki is 1.1 nM.

Turning to `Cc1nc2c(s1)CN([C@H](C)Cc1nc3c4ccc5c(c4nc(N)n3n1)OC(F)(F)O5)CC2` [Example 80, 2,2-difluoro-8-[(2R)-2-(2-methyl-6,7-dihydro[1,3]thiazolo[5,4-c]pyridin-5(4H)-yl)propyl][1,3] dioxolo[4,5-h][1,2,4]triazolo [1,5-c]quinazolin-5-amine], the Ki amounted to 2.6 nM. This Ki is about 2.4-fold higher than that of the compound before.

Regarding `CC(c1nc2c3ccc4c(c3nc(N)n2n1)OC(F)(F)O4)N1C[C@H](F)[C@@H](F)C1` (single isomer, unassigned) [Example 134, (R or S)-8-{1-[(3S,4S)-3,4-difluoropyrrolidin-1-yl]ethyl}-2,2-difluoro[1,3]dioxolo[4,5-h][1,2,4]triazolo[1,5-c]quinazolin-5-amine], the Ki was determined as 24 nM.

For `Nc1nc2c3c(ccc2c2nc(CC4CN(c5ccccn5)C4)nn12)OC(F)(F)O3` [Example 153, 2,2-difluoro-8-[(1-pyridin-2-ylazetidin-3-yl)methyl][1,3] dioxolo[4,5-h][1,2,4]triazolo [1,5-c]quinazolin-5-amine], the Ki is 170 nM.

The compound `Nc1nc2c3c(ccc2c2nc(CCNC4CC5(CNC5)C4)nn12)OC(F)(F)O3` [Example 57, 8-[2-(2-azaspiro[3.3]hept-6-ylamino)ethyl]-2,2-difluoro [1,3]dioxolo[4,5-h][1,2,4] triazolo[1,5-c]quinazolin-5-amine] registered a Ki of 90 nM.

For the origin of these results see patent US11046714B2, “2,2-difluorodioxolo A2A receptor antagonists” (Merck Sharp & Dohme Corp., priority 2013, dated 2021).
